Measurements taken from patent publication US7407772B2, “Screening and selection methods for statin drug combinations” (Merck & Co., Inc., priority 2001, dated 2008).
“Also recorded” adds a separate entry of the source. Like-named read-outs stand apart in the source and are kept apart here. One block for each compound: values may come before it.

Key:
[1] = system: CYP3A (SVA, AVA); CYP3A and CYP2C8 (CVA); assay: in vitro; details: human, human liver microsomes, pH 7.4
Protocol: For oxidative metabolism studies, a typical incubation mixture, in a final volume of 0.5 mL, contained 0.1-0.25 mg liver microsomal protein, 0.1M sodium phosphate buffer (pH 7.4), 10 mM MgCl2, and 1 mM NADPH. […] Incubations were conducted at 37° C. and were terminated after 10-20 min (with NADPH) by the addition of ACN (acetonitrile). The ACN extracts were evaporated to dryness and reconstituted for analysis by HPLC with UV detection.
In brief, samples, held in an autosampler set at 5° C., were chromatographed on either a Betasil C18 (250×4.6 mm, 5 μm) or a Zorbax C18 (Waters, 150×4.6 mm, 5 μm) column, preceded by a C18 guard column, with a linear gradient of acetonitrile in 10 or 25 mM ammonium acetate, pH 4.5. […] Due to unavailability of authentic standards for oxidative metabolites of statins, quantitation of these metabolites in the in vitro incubation mixtures was accomplished using standard curves for their respective statins, assuming identical extraction recoveries and extinction coefficients between the parent drug and its corresponding metabolites.

human liver microsomes [2] = assay: Glucuronidation assay: statin glucuronidation in human liver microsomes; assay type: in vitro ADME; details: preliminary data
Protocol: (§5) The term “glucuronidation assay” as used herein refers to the following assay when performed with human liver microsomes. […] Unless otherwise specified, the reaction was started by the addition of statins following a 3-min pre-incubation at 37° C., and the reaction was incubated for 45-60 min. Control experiments included incubation mixtures with either microsomes or UDPGA missing. The reaction was terminated, at appropriate time intervals, by the addition of 0.8 ml acetonitrile (ACN). […] The ability of statins to undergo glucuronidation was measured by formation of statin glucuronide and statin lactones, and expressed in term of intrinsic clearance (Clint). The CLint was estimated by dividing Vmax by apparent Km. The Km and Vmax values were estimated using a nonlinear regression program, based on a Michealis-Menten equation as follow: V=Vmax×C/(Km+C); V=formation rate of statin glucuronide+lactone, and C=substrate concentration. Incubations were performed in triplicate for human liver microsomes (pooled from n=10) or UGTs at 250-μM substrate concentration. Values are mean±SD (n=3 to 5).

[3] = as above; assay type: in vitro ADME; details: human, pH 7, read-out: intrinsic clearance of glucuronidation
Protocol: as §5

[4] = cited from earlier work; for increase of plasma AUC by gemfibrozil: humans, multiple oral doses of gemfibrozil, single oral dose of simvastatin or lovastatin; for Cmax: reported values following 600 mg bid gemfibrozil or 200 mg qd fenofibrate in humans
[5] = Clinical pharmacokinetics in humans (literature); assay type: in vivo; details: at their respective therapeutic doses
[6] = dog, in vivo
CYP3A4 = biological target: T1, CYP3A4 (Homo sapiens, UniProt P08684); details: human liver microsomes; cited from earlier work
T1 construct: in human liver microsomes, an in vitro assay for determining hepatic CYP3A4 activity; host or cells: human liver microsomes

[7] = Ex vivo simvastatin hydrolysis in dog plasma; assay type: in vitro ADME
[8] = system: oxidative metabolism of simvastatin acid (NADPH-dependent); assay: Inhibition of simvastatin acid oxidation in dog liver microsomes; assay type: in vitro ADME; details: pH 7.4, probe simvastatin acid (10-20 μM)
[9] = system: human recombinant UGT isoforms; assay: UGT-specific glucuronidation assay, identification of responsible isoforms; assay type: in vitro ADME
Protocol: To examine UGT isoforms responsible for the glucuronidation of statins, incubations with various human recombinant UGT isoforms were performed using the same conditions as described herein for human liver microsomes in Example 1, except that the mixture contained 0.3 mg UGTs and was incubated for up to 60 min.

[10] = Pharmacokinetics after oral simvastatin in dogs pretreated with vehicle, gemfibrozil or fenofibrate; details: dog, in vivo
[11] = system: glucuronidation of RVA (UDPGA-dependent); assay: in vitro; details: human, liver microsomes, pH 7, probe RVA (10-20 μM), IC50, RVA Glucuronidation, statin 10-20 μM, UDPGA
Protocol: (§1) The term “glucuronidation inhibition assay” as used herein refers to the following assay when performed with human liver microsomes.
(§2) The effects of inhibitors on metabolism of the statins were expressed as percentages of metabolites (statin glucuronides and lactones) formed in the presence of inhibitors relative to the corresponding values obtained in the absence of inhibitors (control) on the same day.
(§3) Incubations were performed in triplicate for each concentration of inhibitors, and involved co-incubation of GFZ or ketoconazole (1 μM) with statins (10-20 μM) in the presence of NADPH (oxidation) or UDPGA (glucuronidation).

human liver microsomes [12] = assay: in vitro
Protocol: as §1, §2, §3

[13] = system: glucuronidation of CVA (UDPGA-dependent); assay: in vitro; details: human, liver microsomes, pH 7, probe CVA (10-20 μM), IC50, CVA Glucuronidation, statin 10-20 μM, UDPGA
Protocol: as §1, §2, §3

[14] = system: glucuronidation of AVA (UDPGA-dependent); assay: in vitro; details: human, liver microsomes, pH 7, probe AVA (10-20 μM), IC50, AVA Glucuronidation, statin 10-20 μM, UDPGA
Protocol: as §1, §2, §3

[15] = system: glucuronidation of SVA (UDPGA-dependent); assay: in vitro; details: human, liver microsomes, pH 7, probe SVA (10-20 μM), IC50, SVA Glucuronidation, statin 10-20 μM, UDPGA
Protocol: as §1, §2, §3

[16] = system: oxidation of CVA to O-demethylated metabolite M2; assay: in vitro; details: human, pH 7.4
Protocol: (§4) The term “oxidation inhibition assay” as used herein refers to the following assay when performed with human liver microsomal protein.
as §3

[17] = system: oxidation of CVA to hydroxylated metabolite M1; assay: in vitro; details: human, pH 7.4
Protocol: as §4, §3

[18] = system: CYP3A-mediated oxidation of SVA; assay: in vitro; details: human, pH 7.4
Protocol: as §4, §3

[19] = system: oxidative metabolism of AVA (NADPH-dependent); assay: in vitro; details: human, pH 7.4
Protocol: as §4, §3

[20] = dog, in vivo, po
[21] = system: glucuronidation of simvastatin acid (UDPGA-dependent); assay: Inhibition of simvastatin acid glucuronidation in dog liver microsomes; assay type: in vitro ADME; details: pH 7, probe simvastatin acid (10-20 μM)
Protocol: A typical incubation mixture, in a final volume of 0.3 ml, contained 0.45 mg human or animal liver microsomes, preincubated with 0.045 mg Brij 58 (or 0.0225 mg alamethicin) for 15 min, 20 mM MgCl2, 5 mM UDPGA, and 0.05 M Tris buffer, pH 7.0.

[22] = system: oxidation of CVA (both oxidative metabolites); assay: in vitro; details: human, pH 7.4
Protocol: as §4, §3

[23] = system: oxidative metabolism of SVA (NADPH-dependent); assay: in vitro; details: human, pH 7.4
Protocol: as §4, §3

[24] = system: oxidation of CVA to metabolite M1; assay: in vitro; details: human, pH 7.4
Protocol: as §4, §3

[25] = system: oxidation of CVA to metabolite M2; assay: in vitro; details: human, pH 7.4
Protocol: as §4, §3

T1 sequence (P08684 whole entry): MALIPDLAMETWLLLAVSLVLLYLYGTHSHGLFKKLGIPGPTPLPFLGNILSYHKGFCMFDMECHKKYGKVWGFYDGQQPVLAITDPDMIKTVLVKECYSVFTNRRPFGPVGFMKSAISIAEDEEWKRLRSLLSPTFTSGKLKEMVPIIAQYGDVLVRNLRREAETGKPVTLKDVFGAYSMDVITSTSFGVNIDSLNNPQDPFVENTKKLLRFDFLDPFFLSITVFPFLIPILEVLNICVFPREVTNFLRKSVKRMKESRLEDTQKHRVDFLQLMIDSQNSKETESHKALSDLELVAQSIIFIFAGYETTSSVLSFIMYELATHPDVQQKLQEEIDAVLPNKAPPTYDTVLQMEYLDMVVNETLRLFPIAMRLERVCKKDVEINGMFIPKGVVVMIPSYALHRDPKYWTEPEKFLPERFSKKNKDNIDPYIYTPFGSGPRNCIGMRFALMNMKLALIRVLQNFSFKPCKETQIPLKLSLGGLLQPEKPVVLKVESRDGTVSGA

microsomal CLint [1]: 10 µL/min/mg
CLint, Glucuronidation (human liver microsomes [2]): 2.9 ul/min/mg protein
Relative Contribution of glucuronidation to overall metabolism (human liver microsomes [2]): 22
microsomal CLint [3]: 2.9 µL/min/mg
SMILES: COCc1c(C(C)C)nc(C(C)C)c(/C=C/[C@@H](O)C[C@@H](O)CC(=O)O)c1-c1ccc(F)cc1 [CVA, cerivastatin]

SMILES: CC[C@H](C)C(=O)O[C@H]1C[C@@H](C)C=C2C=C[C@H](C)[C@H](CC[C@@H]3C[C@@H](O)CC(=O)O3)[C@H]21 [lovastatin lactone, lovastatin]
increase of plasma AUC by gemfibrozil [4]: no significant effect

exposure in humans relative to fenofibrate/fenofibric acid [5]: > 2 fold
decrease in the biliary excretion of simvastatin-glucuronide [6]: ~2 fold
effect on ex vivo simvastatin hydrolysis [7]: Minimal effect
effect on ex vivo simvastatin hydrolysis ([7]; listed as gemfibrozil): did not affect
IC50 [8]: ~1000 µM
UGT isozymes catalyzing glucuronidation of the substance [9]: UGT1A1 and 1A3
AUC(0-t) ([10]; po, 75 mg/kg, AUC 12 hr of gemfibrozil, gemfibrozil 75 mg/kg bid for 5 days): 1440 ± 176 µM·h
Cmax ([10]; po, 75 mg/kg, Cmax of gemfibrozil, gemfibrozil treated (75 mg/kg bid for 5 days)): 446 ± 66 µM
IC50 [11]: ~400 µM
IC50 (human liver microsomes [12]; read-out: IC50, AVA Glucuronidation, statin 10-20 μM, UDPGA): 316 µM
IC50 [13]: 82 µM
IC50 [14]: 314 µM
IC50 [15]: 354 µM
IC50 [16]: 220 µM
IC50 [17]: 87 µM
IC50 [18]: > 800 µM
IC50 [19]: > 750 µM
SVA/SV AUC ratio, Gem/vehicle [20]: 5.4 ± 2.1
IC50 [21]: 195 µM
SMILES: Cc1ccc(C)c(OCCCC(C)(C)C(=O)O)c1 [Gemfibrozil, gemfibrozil]
effect on CYP3A4 mediated 1'-hydroxylation of midazolam (CYP3A4): no appreciable inhibitory effect
Cmax [4]: 100 to 300 µM
mode of inhibition of simvastatin acid glucuronidation (human liver microsomes [12]): competitive inhibition

SMILES: CC(C)OC(=O)C(C)(C)Oc1ccc(C(=O)c2ccc(Cl)cc2)cc1 [Fenofibrate, fenofibrate]
UGT isozymes catalyzing glucuronidation of the substance [9]: UGT1A9 and isoforms of the UGT2B subfamily
Cmax [4]: 15 to 55 µM

UGT isozymes catalyzing glucuronidation of the substance ([9]; listed as SVA): UGT1A1 and 1A3; also recorded: UGT1A10
SMILES: CCC(C)(C)C(=O)O[C@H]1C[C@@H](C)C=C2C=C[C@H](C)[C@H](CC[C@@H](O)C[C@@H](O)CC(=O)O)[C@H]21 [Simvastatin acid, simvastatin acid]
increase of plasma AUC by gemfibrozil [4]: 185%

SMILES: CC[C@H](C)C(=O)O[C@H]1C[C@@H](C)C=C2C=C[C@H](C)[C@H](CC[C@@H](O)C[C@@H](O)CC(=O)O)[C@H]21 [lovastatin acid]
increase of plasma AUC by gemfibrozil [4]: 280%

inhibition at 1 µM [22]: ≤ 50%
inhibition at 1 µM [19]: > 90%
inhibition at 1 µM [23]: > 85%
inhibition at 1 µM [24]: 68%
inhibition at 1 µM [25]: ~50%
SMILES: CC(=O)N1CCN(c2ccc(OCC3COC(Cn4ccnc4)(c4ccc(Cl)cc4Cl)O3)cc2)CC1 (stereo not drawn) [Ketoconazole, ketoconazole]

Cmax ([10]; Cmax of fenofibric acid, fenofibrate treated): 77 ± 9.7 µM
IC50 [21]: 283 µM
SMILES: CC(C)(Oc1ccc(C(=O)c2ccc(Cl)cc2)cc1)C(=O)O [Fenofibric acid, fenofibric acid]
